One assay has as its system T1, PsAOMT.
T1 construct: gene AOMT; dimer in solution; Leu-87; differs from PtAOMT at positions 13 (E), 85 (A), 87 (L), 205 (R)
In words: HPLC of methylated product. It counts as biochemical, Paeonia suffruticosa. Particulars: 200 μM SAM, 1.0 mM MgCl2, 14 mM β-mercaptoethanol, 100 mM Tris/HCl pH 7.5, 35 °C; MBP fusion; read-out: PsAOMT / K m. An excerpt:
HPLC of methylated product on PsAOMT

The subject of another assay is T2, PtAOMT.
T2 construct: gene AOMT; dimer in solution; Arg-87; Gly-13, Thr-85, Thr-205
Briefly: HPLC of methylated product. The format is biochemical, Paeonia tenuifolia. Particulars: 200 μM SAM, 1.0 mM MgCl2, 14 mM β-mercaptoethanol, 100 mM Tris/HCl pH 7.5, 35 °C; MBP fusion. An excerpt:
HPLC of methylated product on PtAOMT | K m of PtAOMT-R87L for Cy3G was slightly lower than its K m for Cy3G5G

Data on 6 compounds can be found in article PMC4623676, “Methylation mediated by an anthocyanin, O-methyltransferase, is involved in purple flower coloration in Paeonia” (Journal of Experimental Botany, 2015).

Take `O=c1cc(-c2ccc(O)c(O)c2)oc2cc(O[C@@H]3O[C@H](CO)[C@@H](O)[C@H](O)[C@H]3O)cc(O)c12` [Lu7G, Luteolin 7-O-glucoside]: the Km in the assay with PsAOMT amounted to 146 µM.
Consider `OC[C@H]1O[C@@H](Oc2cc3c(O[C@@H]4O[C@H](CO)[C@@H](O)[C@H](O)[C@H]4O)cc(O)cc3[o+]c2-c2ccc(O)c(O)c2)[C@H](O)[C@@H](O)[C@@H]1O` [Cy3G5G, Cyanidin 3,5-di-O-glucoside], for which the values for the Km in the assay on PtAOMT and in the assay on PsAOMT were 8.51 ± 1.39 µM and 1.06 µM, respectively.
Take `O=c1c(O)c(-c2ccc(O)c(O)c2)oc2cc(O)cc(O)c12` [Quercetin]: the Km with PsAOMT was found to be 4.33 µM.
Turning to `OC[C@H]1O[C@@H](Oc2cc3c(O)cc(O)cc3[o+]c2-c2cc(O)c(O)c(O)c2)[C@H](O)[C@@H](O)[C@@H]1O` [Dp3G, Delphinidin 3-O-glucoside], the Km with PsAOMT came to 4.11 µM.
In the case of `C[C@@H]1O[C@@H](OC[C@H]2O[C@@H](Oc3c(-c4ccc(O)c(O)c4)oc4cc(O)cc(O)c4c3=O)[C@H](O)[C@@H](O)[C@@H]2O)[C@H](O)[C@H](O)[C@H]1O` [Qu3R, Quercetin 3-O-rutinoside], in the assay with PsAOMT, the Km amounted to 12.3 µM.
Turning to `OC[C@H]1O[C@@H](Oc2cc3c(O)cc(O)cc3[o+]c2-c2ccc(O)c(O)c2)[C@H](O)[C@@H](O)[C@@H]1O` [Cy3G, Cyanidin 3-O-glucoside], the values for the Km with PtAOMT and in the assay with PsAOMT were 3.53 ± 0.31 µM and 1.76 µM, respectively.
